For assay [1], the system named is AsPC-1 cells. The assay is described as follows: AsPC-1 cell proliferation assay (CellTiter Glo). The assay is classed as cell-based. The following applies: 6 days. Summed up: (§1)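 Half-maximal degradation (DC50) and inhibition (IC50) concentrations are fitted from dose-response curves spanning […] to 1.5 nM final. KRAS G12D loss is measured by fluorescent antibody staining with β-actin reference after 24 h; growth is measured by ATP luminescence after a 6-day exposure.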

Assay [2] deals with T1, KRAS (G12D) (Homo sapiens, UniProt P01116, G12D).
T1 construct: in-cell western with KRAS G12D antibody after 24 h
The assay is described as follows: KRAS (G12D) cellular degradation assay in AsPC-1 cells. The format is cell-based. As to conditions: 24 hours, antibody fluorescence (Odyssey CLX), DC50 half-maximal degradation concentration. The gist of the method: as §1

T1 sequence (P01116 1-188 isoform P01116-2 G12D): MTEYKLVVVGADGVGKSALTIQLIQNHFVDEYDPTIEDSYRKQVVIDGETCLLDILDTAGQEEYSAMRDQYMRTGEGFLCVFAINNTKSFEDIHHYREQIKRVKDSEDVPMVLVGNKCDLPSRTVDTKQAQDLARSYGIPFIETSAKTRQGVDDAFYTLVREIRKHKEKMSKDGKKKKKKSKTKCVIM

With `CCn1nccc1-c1ccc([C@@H](NC(=O)[C@@H]2C[C@@H](O)CN2C(=O)[C@H](C(C)C)n2cc(-c3ccc(COc4c(-c5c(C)c(F)cc6[nH]ncc56)c(C5CC5)cc5c(N6C[C@@H]7C[C@H]6CN7)nc(OC[C@H](C)OC)nc45)cc3)nn2)[C@H](C)O)c2c1CC2` [Example 85, (2S,4R)-1-((2S)-2-(4-(4-(((4-((1S,4S)-2,5-diazabicyclo[2.2.1]heptan-2-yl)-6-cyclopropyl-7-(6-fluoro-5-methyl-1H-indazol-4-yl)-2-((S)-2-methoxypropoxy)quinazolin-8-yl)oxy)methyl)phenyl)-1H-1,2,3-triazol-1-yl)-3-methylbutanoyl)-N-((1R,2S)-1-(5-(1-ethyl-1H-pyrazol-5-yl)bicyclo[4.2.0]octa-1(6),2,4-trien-2-yl)-2-hydroxypropyl)-4-hydroxypyrrolidine-2-carboxamide], the IC50 in assay [1] (Homo sapiens, ASPC1, 144 h) is < 10 nM. For the same molecule, the DC50 in assay [2] was < 10 nM.

For the molecule `CO[C@@H](C)COc1nc(N2C[C@@H]3C[C@H]2CN3)c2cc(C3CC3)c(-c3c(C)c(F)cc4[nH]ncc34)c(OCc3ccc(-c4cn([C@H](C(=O)N5C[C@H](O)C[C@H]5C(=O)N[C@H](C#Cc5cccc6[nH]ncc56)CO)C(C)C)nn4)cc3)c2n1` [Example 133, (2S,4R)-1-((2S)-2-(4-(4-(((4-((1S,4S)-2,5-diazabicyclo[2.2.1]heptan-2-yl)-6-cyclopropyl-7-(6-fluoro-5-methyl-1H-indazol-4-yl)-2-((S)-2-methoxypropoxy)quinazolin-8-yl)oxy)methyl)phenyl)-1H-1,2,3-triazol-1-yl)-3-methylbutanoyl)-4-hydroxy-N—((R)-1-hydroxy-4-(1H-indazol-4-yl)but-3-yn-2-yl)pyrrolidine-2-carboxamide], the IC50 in assay [1] (Homo sapiens, ASPC1, 144 h) was < 10 nM. In assay [2], the DC50 is < 10 nM.

Consider `CCn1nccc1-c1ccc([C@@H](NC(=O)[C@@H]2C[C@@H](O)CN2C(=O)[C@H](C(C)C)n2cc(-c3ccc(COc4c(-c5c(C)c(F)cc6[nH]ncc56)c(C5CC5)cc5c(N6C[C@@H]7C[C@H]6CN7)nc(OCC(OC)C(F)F)nc45)cc3)nn2)[C@H](C)O)cc1` (stereo partly drawn) [Example 122, (2S,4R)-1-((2S)-2-(4-(4-(((4-((1S,4S)-2,5-diazabicyclo[2.2.1]heptan-2-yl)-6-cyclopropyl-2-(3,3-difluoro-2-methoxypropoxy)-7-(6-fluoro-5-methyl-1H-indazol-4-yl)quinazolin-8-yl)oxy)methyl)phenyl)-1H-1,2,3-triazol-1-yl)-3-methylbutanoyl)-N-((1R,2S)-1-(4-(1-ethyl-1H-pyrazol-5-yl)phenyl)-2-hydroxypropyl)-4-hydroxypyrrolidine-2-carboxamide], for which the IC50 in assay [1] was < 10 nM. Also, the DC50 in assay [2] was < 10 nM.

Consider `CCn1nccc1-c1ccc([C@H](CO)NC(=O)[C@@H]2C[C@@H](O)CN2C(=O)[C@H](C(C)C)n2cc(-c3ccc(COc4c(-c5c(C)c(F)cc6[nH]ncc56)c(C5CC5)cc5c(N(C)[C@@H]6CCNC6)nc(O[C@H]6C[C@H](OC)C6)nc45)cc3)nn2)c2c1CC2` [Example 204, (2S,4R)-1-((2S)-2-(4-(4-(((6-cyclopropyl-7-(6-fluoro-5-methyl-1H-indazol-4-yl)-2-((1r,3R)-3-methoxycyclobutoxy)-4-(methyl((R)-pyrrolidin-3-yl)amino)quinazolin-8-yl)oxy)methyl)phenyl)-1H-1,2,3-triazol-1-yl)-3-methylbutanoyl)-N—((R)-1-(5-(1-ethyl-1H-pyrazol-5-yl)bicyclo[4.2.0]octa-1(6),2,4-trien-2-yl)-2-hydroxyethyl)-4-hydroxypyrrolidine-2-carboxamide], for which the IC50 in assay [1] (Homo sapiens, ASPC1, 144 h) is < 10 nM. Besides, the half-maximal degradation concentration (DC50) in assay [2] is < 10 nM.

In the case of `CO[C@@H](C)COc1nc(N(C)[C@H]2CCNC2)c2cc(C3CCC3)c(-c3c(C)c(F)cc4[nH]ncc34)c(OCc3ccc(-c4cn([C@H](C(=O)N5C[C@H](O)C[C@H]5C(=O)N[C@H](c5ccc(-c6scnc6C)cc5)[C@H](C)O)C(C)C)nn4)cc3)c2n1` [Example 159, (2S,4R)-1-((2S)-2-(4-(4-(((6-cyclobutyl-7-(6-fluoro-5-methyl-1H-indazol-4-yl)-2-((S)-2-methoxypropoxy)-4-(methyl((S)-pyrrolidin-3-yl)amino)quinazolin-8-yl)oxy)methyl)phenyl)-1H-1,2,3-triazol-1-yl)-3-methylbutanoyl)-4-hydroxy-N-((1R,2S)-2-hydroxy-1-(4-(4-methylthiazol-5-yl)phenyl)propyl)pyrrolidine-2-carboxamide], the IC50 in assay [1] was < 10 nM. In assay [2], the DC50 is < 10 nM.

`CCn1nccc1-c1ccc([C@H](CO)NC(=O)[C@@H]2C[C@@H](O)CN2C(=O)[C@H](C(C)C)n2cc(-c3ccc(COc4c(-c5c(C)c(F)cc6[nH]ncc56)c(C5CC5)cc5c(N6C[C@@H]7C[C@H]6CN7)nc(OC[C@H](C)OC)nc45)cc3)nn2)c2c1CC2` [Example 152, (2S,4R)-1-((2S)-2-(4-(4-(((4-((1S,4S)-2,5-diazabicyclo[2.2.1]heptan-2-yl)-6-cyclopropyl-7-(6-fluoro-5-methyl-1H-indazol-4-yl)-2-((S)-2-methoxypropoxy)quinazolin-8-yl)oxy)methyl)phenyl)-1H-1,2,3-triazol-1-yl)-3-methylbutanoyl)-N—((R)-1-(5-(1-ethyl-1H-pyrazol-5-yl)bicyclo[4.2.0]octa-1(6),2,4-trien-2-yl)-2-hydroxyethyl)-4-hydroxypyrrolidine-2-carboxamide]: in assay [1] (Homo sapiens, ASPC1, 144 h), the concentration for half-maximal inhibition (IC50) is < 10 nM. Besides, the DC50 in assay [2] was < 10 nM.

Take `CCn1nccc1-c1ccc([C@@H](NC(=O)[C@@H]2C[C@@H](O)CN2C(=O)[C@H](C(C)C)n2cc(-c3ccc(COc4c(-c5c(C)c(F)cc6[nH]ncc56)c(C5CC5)cc5c(N6C[C@@H]7C[C@H]6CN7)nc(OC6CC7(COC7)C6)nc45)cc3)nn2)[C@H](C)O)cc1` [Example 100, (2S,4R)-1-((2S)-2-(4-(4-(((2-((2-oxaspiro[3.3]heptan-6-yl)oxy)-4-((1S,4S)-2,5-diazabicyclo[2.2.1]heptan-2-yl)-6-cyclopropyl-7-(6-fluoro-5-methyl-1H-indazol-4-yl)quinazolin-8-yl)oxy)methyl)phenyl)-1H-1,2,3-triazol-1-yl)-3-methylbutanoyl)-N-((1R,2S)-1-(4-(1-ethyl-1H-pyrazol-5-yl)phenyl)-2-hydroxypropyl)-4-hydroxypyrrolidine-2-carboxamide]: the IC50 in assay [1] (Homo sapiens, ASPC1, 144 h) is < 10 nM. For the same molecule, the half-maximal degradation concentration (DC50) in assay [2] is < 10 nM.

`CCn1nccc1-c1ccc([C@H](CO)NC(=O)[C@@H]2C[C@@H](O)CN2C(=O)[C@H](C(C)C)n2cc(-c3ccc(COc4c(-c5c(C)c(F)cc6[nH]ncc56)c(C5CC5)cc5c(N6CCCNCC6)nc(OC[C@H](C)OC)nc45)cc3)nn2)cc1` [Example 107, (2S,4R)-1-((2S)-2-(4-(4-(((6-cyclopropyl-4-(1,4-diazepan-1-yl)-7-(6-fluoro-5-methyl-1H-indazol-4-yl)-2-((S)-2-methoxypropoxy)quinazolin-8-yl)oxy)methyl)phenyl)-1H-1,2,3-triazol-1-yl)-3-methylbutanoyl)-N—((R)-1-(4-(1-ethyl-1H-pyrazol-5-yl)phenyl)-2-hydroxyethyl)-4-hydroxypyrrolidine-2-carboxamide]: the IC50 in assay [1] (Homo sapiens, ASPC1, 144 h) was < 10 nM. Moreover, the DC50 in assay [2] is < 10 nM.

`Cc1ncsc1-c1ccc([C@H](CO)NC(=O)[C@@H]2C[C@@H](O)CN2C(=O)[C@H](C(C)C)n2cc(-c3ccc(COc4c(-c5c(C)c(F)cc6[nH]ncc56)c(C5CC5)cc5c(N6C[C@@H]7C[C@H]6CN7)nc(OC6CCC7(CC6)COC7)nc45)cc3)nn2)cc1` [Example 63, (2S,4R)-1-((2S)-2-(4-(4-(((2-((2-oxaspiro[3.5]nonan-7-yl)oxy)-4-((1S,4S)-2,5-diazabicyclo[2.2.1]heptan-2-yl)-6-cyclopropyl-7-(6-fluoro-5-methyl-1H-indazol-4-yl)quinazolin-8-yl)oxy)methyl)phenyl)-1H-1,2,3-triazol-1-yl)-3-methylbutanoyl)-4-hydroxy-N—((R)-2-hydroxy-1-(4-(4-methylthiazol-5-yl)phenyl)ethyl)pyrrolidine-2-carboxamide]: the IC50 in assay [1] (Homo sapiens, ASPC1, 144 h) was < 10 nM. Besides, the DC50 in assay [2] is < 10 nM.

`CO[C@@H](C)COc1nc(N2C[C@H]3C[C@@H]2CN3)c2cc(C3CC3)c(-c3c(C)c(F)cc4[nH]ncc34)c(OCc3ccc(-c4cn([C@H](C(=O)N5C[C@H](O)C[C@H]5C(=O)NCc5ccc(-c6scnc6C)cc5)C(C)C)nn4)cc3)c2n1` (single isomer, unassigned) [Example 11A] yielded an IC50 in assay [1] (Homo sapiens, ASPC1, 144 h) of 10 to 100 nM. In assay [2], this molecule gave a 50% degradation concentration (DC50) of 10 to 100 nM.

As for `CCn1nccc1-c1ccc([C@H](CO)NC(=O)[C@@H]2C[C@@H](O)CN2C(=O)[C@H](C(C)C)n2cc(-c3ccc(COc4c(-c5c(C)c(F)cc6[nH]ncc56)c(C5CC5)cc5c(N6CCOCC(C)(O)C6)nc(OC[C@H](C)OC)nc45)cc3)nn2)cc1` (stereo partly drawn) [Example 161, (2S,4R)-1-((2S)-2-(4-(4-(((6-cyclopropyl-7-(6-fluoro-5-methyl-1H-indazol-4-yl)-4-(6-hydroxy-6-methyl-1,4-oxazepan-4-yl)-2-((S)-2-methoxypropoxy)quinazolin-8-yl)oxy)methyl)phenyl)-1H-1,2,3-triazol-1-yl)-3-methylbutanoyl)-N—((R)-1-(4-(1-ethyl-1H-pyrazol-5-yl)phenyl)-2-hydroxyethyl)-4-hydroxypyrrolidine-2-carboxamide], the half-inhibitory concentration (IC50) in assay [1] (Homo sapiens, ASPC1, 144 h) was < 10 nM. In addition, the half-maximal degradation concentration (DC50) in assay [2] fell in the range of 10 to 100 nM.
